Measurements: patent publication US5747495A, “Method for treating hypertension using pyrazolopyrimidine derivatives” (Maeda; Hiroshi, priority 1995, dated 1998)
Values joined by “and” are separate entries in the source; they are usually repeats but may differ in a detail not shown here. Identical values can stand only once. Each block holds one compound with its values, some of them ahead of it.

Legend:
Rabbit Aortic Ring = experiment: Relaxation of phenylepherine-contracted rabbit aortic ring by acetylcholine in the presence of AHPP; set-up: species or system New Zealand White rabbit; settings: for Amount of acethylcholine required to inhibit 50% relaxation of aorta ring: 0.11 without AHPP
Procedure: Synergistic Vascular Relaxation Effect to Acetylcholine of Rabbit Aortic Ring by AHPP Aortic ring with a diameter of 5 mm was prepared from chest aorta of New Zealand White female rabbits with a body weight of 2.5-3.0 kg. The rings were surgically prepared and hanged into the organ bath containing 20 ml of Krebs solution, which was kept at 37° C. and supplemented with 95% O2 and 5% CO2, for determination of the tension. Aortic ring relaxation by […] acetylcholine was measured in the prescence of 0, 100, and 300 μmole/L of AHPP, after aortic ring contraction was induced by 0.15 μmole/L phenylepherine.

[1] = test system: Spontaneously Hypertensive Rats; experiment: Systolic blood pressure of spontaneously hypertensive rats after oral administration; type: in vivo, rat; settings: 100 mg/kg oral, 4 hours after treatment, male spontaneously hypertensive rats
Procedure: Effects of Oral Administration of AHpp on the Blood Pressure of Spontaneously Hypertensive Rats
Four male spontaneously hypertensive rats with a body weight of […] and 4 male rats with a body weight of 200-300 g were orally given with 100 mg/kg of AHPP and a systolic blood pressure in tail artery was examined 4 hours after the treatment. Systolic blood pressure of the treated group was reduced to 70% the value of before

[2] = target: xanthine oxidase derived from cow milk (Bos taurus, UniProt P80457); experiment: Inhibition of superoxide production by xanthine oxidase in vitro (lucigenin chemiluminescence); type: biochemical; settings: for Integral value of intensity of chemiluminescence/10 min: average of two measurements, without AHPP 5.2 × 10^6 count
xanthine oxidase derived from cow milk, sequence (P80457 whole entry): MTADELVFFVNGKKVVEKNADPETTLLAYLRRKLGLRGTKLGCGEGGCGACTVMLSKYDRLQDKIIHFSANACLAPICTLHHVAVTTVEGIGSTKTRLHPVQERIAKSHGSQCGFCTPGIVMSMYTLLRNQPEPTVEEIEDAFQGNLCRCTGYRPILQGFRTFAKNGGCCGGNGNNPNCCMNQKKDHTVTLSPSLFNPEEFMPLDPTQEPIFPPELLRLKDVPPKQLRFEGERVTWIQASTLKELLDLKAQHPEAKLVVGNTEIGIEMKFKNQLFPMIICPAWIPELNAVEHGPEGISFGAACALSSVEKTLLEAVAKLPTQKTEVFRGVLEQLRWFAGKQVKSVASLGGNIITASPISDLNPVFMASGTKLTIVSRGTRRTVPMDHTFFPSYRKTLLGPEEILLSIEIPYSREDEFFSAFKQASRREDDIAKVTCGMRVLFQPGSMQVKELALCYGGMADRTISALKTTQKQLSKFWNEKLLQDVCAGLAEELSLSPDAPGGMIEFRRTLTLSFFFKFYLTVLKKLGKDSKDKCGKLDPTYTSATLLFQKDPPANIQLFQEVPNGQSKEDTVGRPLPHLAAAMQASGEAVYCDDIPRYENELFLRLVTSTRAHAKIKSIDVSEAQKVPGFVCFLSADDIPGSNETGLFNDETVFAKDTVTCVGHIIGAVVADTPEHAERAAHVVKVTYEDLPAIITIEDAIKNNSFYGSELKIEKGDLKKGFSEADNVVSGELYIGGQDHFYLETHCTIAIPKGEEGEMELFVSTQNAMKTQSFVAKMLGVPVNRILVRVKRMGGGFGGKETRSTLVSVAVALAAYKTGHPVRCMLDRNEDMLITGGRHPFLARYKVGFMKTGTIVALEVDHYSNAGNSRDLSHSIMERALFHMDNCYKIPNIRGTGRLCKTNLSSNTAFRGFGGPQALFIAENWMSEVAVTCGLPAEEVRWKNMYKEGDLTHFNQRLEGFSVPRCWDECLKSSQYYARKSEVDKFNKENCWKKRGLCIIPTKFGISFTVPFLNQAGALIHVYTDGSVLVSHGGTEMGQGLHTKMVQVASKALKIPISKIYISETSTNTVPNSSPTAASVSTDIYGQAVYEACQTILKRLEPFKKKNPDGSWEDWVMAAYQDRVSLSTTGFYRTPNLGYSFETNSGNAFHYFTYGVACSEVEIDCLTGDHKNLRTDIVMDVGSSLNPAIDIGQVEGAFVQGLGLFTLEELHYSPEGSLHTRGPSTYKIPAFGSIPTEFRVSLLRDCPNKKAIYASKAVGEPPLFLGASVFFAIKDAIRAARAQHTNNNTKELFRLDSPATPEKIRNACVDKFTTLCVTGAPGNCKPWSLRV
Procedure: Inhibitory Effect of AHPP against Superoxide Production by Xanthine Oxidase In Vitro
Production of superoxide radicals was determined by measuring a chemiluminescence observed in 100 mM phosphate buffer (pH 7.4) containing 10 μmole/L lucigenin and […] xanthine in the presence of 20 U/ml of xanthine oxidase derived from cow milk. Further, the inhibition of superoxide generation by the AHPP was evaluated by addition of 0-100 μmole/L of AHPP into the reaction mixture.

[3] = test system: Spontaneously Hypertensive Rats; experiment: Mean arterial blood pressure of spontaneously hypertensive rats after intravenous injection; type: in vivo, rat; settings: 50 mg/kg, average of 8 rats
Procedure: Effect of Intravenous Injection of AHPP on the Blood Pressure of Spontaneously Hypertensive Rats
Eighteen weeks old spontaneously hypertensive 8 male rats weighing 300-400 g were intravenously infused with 50 mg/kg of AHPP in a solution dissolved in 1 ml of 0.1 M NaOH for 5 minutes (8 rats), and mean arterial blood pressure was measured under anesthesia. Eight control rats were received only 0.1 M NaOH by intravenous infusion.
Dose of AHPP. 50 mg/kg in rats. 0.33 mmol/ml, 1.0 ml/5 min. See text for details. Average value of 8 measurements ±SD.

xanthine dehydrogenase = settings: Yokohama Med. Bull., 29, 53-58, 1978; cited from earlier work
tryptophan pyrolase = settings: Life Sci., 8, 843-851, 1969; cited from earlier work
xanthine oxidase = settings: J. Biol. Chem., 226, 993-1000, 1957; cited from earlier work
[4] = target: T1, cow milk xanthine oxidase (Bos taurus, UniProt P80457); experiment: Inhibition of uric acid production by xanthine oxidase in vitro; type: biochemical
T1 construct: in the presence of cow milk xanthine oxidase; from tissue; host or cells: cow milk
T1 sequence (P80457 whole entry): as above
Procedure: Inhibitory Effect of AHPP Against Uric Acid Production by Xanthine Oxidase In Vitro
Rate of uric acid production was determined by measuring the increase of an optical absorbance at 290 nm in 50 mM phosphate buffer solution (pH 7.5) containing 2.19-21.9 μmole/L of xanthine and 0-0.44 μmole/L AHPP in the presence of cow milk xanthine oxidase in the final concentration of 3.33 mU/ml. […] The inhibitory coefficient (Ki) of AHPP for xanthine oxidase was determined to be 0.2 μM, by an analysis of its reaction velocity kinetics.

Compound: CC(=O)OCC[N+](C)(C)C [acetylcholine, reference compound]
EC50 (Rabbit Aortic Ring; Oryctolagus cuniculus, 0 μmole/L AHPP, contraction by 0.15 μmole/L phenylepherine, average of four measurements, read-out: Amount of acethylcholine required to inhibit 50% relaxation of aorta ring): 110 nM

Integral value of intensity of chemiluminescence/10 min ([2]; 1 μmole/L AHPP): 4.4 × 10^6 count
Integral value of intensity of chemiluminescence/10 min ([2]; 10 μmole/L AHPP): 1.6 × 10^6 count
Ki ([4]; pH 7.5, 2.19-21.9 μmole/L xanthine, 0-0.44 μmole/L AHPP, 3.33 mU/ml enzyme, read-out: inhibitory coefficient (Ki) for xanthine oxidase): 200 nM
type of inhibition of xanthine oxidase ([4]; reaction velocity kinetics): competitive inhibition
Compound: Nc1nc(O)nc2[nH]ncc12 [AHPP, 4-amino-6-hydroxypyrazolo [3,4-d]pyrimidine]
Systolic blood pressure in tail artery, % of value before [1]: 70%
inhibition of superoxide production by xanthine oxidase ([2]; 0-100 μmole/L AHPP, pH 7.4): inhibit superoxide production by xanthine oxidase in a dose-dependent manner
Mean arterial blood pressure (100% = preinjection value) ([3]; 5 min after iv, control 105.5 ± 7.5): 98.3 ± 2.7%
Mean arterial blood pressure (100% = preinjection value) ([3]; 10 min after iv, control 107.3 ± 6.9): 92.2 ± 6.1%
Mean arterial blood pressure (100% = preinjection value) ([3]; 15 min after iv, control 106.1 ± 6.3): 91.1 ± 5.6%
Mean arterial blood pressure (100% = preinjection value) ([3]; 20 min after iv, control 105.0 ± 6.6): 86.9 ± 8.0%
Mean arterial blood pressure (100% = preinjection value) ([3]; 30 min after iv, control 103.3 ± 4.2): 81.7 ± 5.0%
Mean arterial blood pressure (100% = preinjection value) ([3]; 40 min after iv, control 100.5 ± 3.1): 77.7 ± 5.2%
Mean arterial blood pressure (100% = preinjection value) ([3]; 50 min after iv, control 98.9 ± 3.3): 76.1 ± 7.2%
Mean arterial blood pressure (100% = preinjection value) ([3]; 60 min after iv, control 97.5 ± 4.1): 73.5 ± 7.5%
Mean arterial blood pressure (100% = preinjection value) ([3]; 70 min after iv, control 96.7 ± 5.0): 72.4 ± 6.6% and 72%
inhibition of xanthine dehydrogenase (xanthine dehydrogenase): potent inhibitor
inhibition of tryptophan pyrolase (tryptophan pyrolase): potent inhibitor
inhibition of xanthine oxidase (xanthine oxidase): potent inhibitor
dose of phenylepherine required for 50% relaxation of phenylepherine-induced aortic ring contraction (Rabbit Aortic Ring; 0, 100, and 300 μmole/L AHPP): reduced depending on the concentration of AHPP
Amount of acethylcholine required to inhibit 50% relaxation of aorta ring (Rabbit Aortic Ring; 100 μmole/L AHPP, contraction by 0.15 μmole/L phenylepherine, average of four measurements): 0.075
Amount of acethylcholine required to inhibit 50% relaxation of aorta ring (Rabbit Aortic Ring; 300 μmole/L AHPP, contraction by 0.15 μmole/L phenylepherine, average of four measurements): 0.055
inhibition of uric acid production by xanthine oxidase ([4]; 0-0.44 μmole/L AHPP, pH 7.5): inhibited by AHPP in a dose-dependent manner
